Data reported in publication PMC5259778, “Candidate pheromone receptors of codling moth Cydia pomonella respond to pheromones and kairomones” (Scientific Reports, 2017).

Columns and labels:
CpomOR6a = assay: Single sensillum recordings, CpomOR6a expressed in Drosophila at1 OSNs; format: cell-based, Cydia pomonella; details: for Spike/s: 10 μg per stimulus
Source text: (§1) To perform heterologous expression in D. melanogaster OSNs, CpomORs were amplified using primers in Table 2 and purified PCR products were cloned into the PCR8/GW/TOPO plasmid (Invitrogen) following the recommended protocol. Cassettes with inserts were then transferred from their PCR8/GW/TOPO plasmids to the destination vector (pUASg-HA.attB, constructed by E. Furger and J. Bischof, kindly provided by the Basler group, Zürich), using the Gateway LR Clonase II kit (Invitrogen). The integrity and orientation of inserts was confirmed by sequencing (Sanger sequencer, 3730xl). Transformant UAS-CpomOR3 and UAS-CpomOR1 lines were generated by Best Gene (Chino Hills, CA, USA), using the PhiC31 integrase system, while the transformant UAS-CpomOR6a line was generated in our labs. Briefly, recombinant pUASg-HA.attB-CpomOR plasmids were injected into embryos of a D. melanogaster line containing an attP insertion site within the third chromosome (genotype y1 M{vas-int.Dm}ZH-2A w*; M{3xP3-RFP.attP}ZH-86Fb), leading to non-random integration. To drive expression of CpomORs in at1 OSNs in place of the endogenous receptor Or67d, transformant UAS-CpomOR lines were crossed to the knock-in Or67d^GAL4 line (kindly provided by Barry Dickson) to generate double homozygous lines w^+;UAS-CpomOR; Or67d^GAL4. Additionally, to drive expression of CpomOR3 in ab3A OSNs, the UAS-CpomOR3 line was crossed to the Δhalo;Or22a-Gal4 mutant line[20][57]. To verify insertion of UAS-CpomORs constructs into the genome, gDNA was extracted and used as template in PCR with primers for the full ORF of CpomORs (Table 2).
(§2) CpomOR1 and CpomOR6a expressed in at1 OSNs, and CpomOR3 expressed in ab3A OSNs, were tested through single sensillum recordings (SSR). Three to 8-day-old flies were immobilized in 100 μL pipette tips with only the top half of the head protruding. The left antenna of each insect was gently pushed with a glass capillary against a double-sided adhesive tape placed on a piece of glass. This piece of glass and the pipette tip were fixed with dental wax on a microscope slide. Electrolytically sharpened tungsten electrodes (Harvard Apparatus Ltd, Edenbridge, United Kingdom) were used to penetrate the insect´s body. The reference electrode was manually inserted in the right eye of the fly, while the recording electrode was manoeuvred with a DC-3K micromanipulator equipped with a PM-10 piezo translator (Märzhäuser Wetzler GmbH, Wetzler, Germany) and inserted at the base of the determined sensilla. Signals coming from the olfactory sensory neurons were amplified 10 times with a probe (INR-02, Syntech, Hilversum, the Netherlands), digitally converted through an IDAC-4-USB (Syntech) interface, and visualized and analysed with the software Autospike v. 3.4 (Syntech). A constant flow of 0.65 m/s of humidified air (charcoal-filtered) was delivered through a glass tube to the antenna. The panel of odorants was given to the insect by inserting pipettes containing a piece of filter paper with the correspondent stimulus in a lateral hole of the glass tube and puffing a flow of 2.5 mL of air during 0.5 s through the pipette. For CpomOR1 and CpomOR6a the panel of odorants was prepared by applying 10 μL of a solution of 1.0 μg/μL of the compounds in Supplementary Dataset S2 and Supplementary Dataset S3, for a total amount of 10 μg per stimulus. In the case of CpomOR3, a similar dilution process was used for the dose response experiments of ethyl-(E,Z)-2,4-decadienoate and methyl-(E,Z)-2,4-decadienoate, as well for dose response of experiments of codlemone acetate in CpomOR6a. Compounds were diluted from concentrations ranging from 0.01 ng/μL to 10 μg/μL in decadic steps, allowing reaching concentrations from 100 pg to 100 μg per stimulus when 10 μL of the dilution was applied in the piece of filter paper. […]

CpomOR1 = assay: Single sensillum recordings, CpomOR1 expressed in Drosophila at1 OSNs; format: cell-based, Cydia pomonella
Source text: as §1, §2

[1] = replicate 1, 10 μg per stimulus
[2] = replicate 2, 10 μg per stimulus
[3] = replicate 3, 10 μg per stimulus
[4] = replicate 4, 10 μg per stimulus
[5] = replicate 5, 10 μg per stimulus

Row | SMILES | Spike/s (CpomOR6a; replicate 1) [Spike/s] | Spike/s (CpomOR6a; replicate 2) [Spike/s] | Spike/s (CpomOR6a; replicate 3) [Spike/s] | Spike/s (CpomOR6a; replicate 4) [Spike/s] | Spike/s (CpomOR6a; replicate 5) [Spike/s] | Spike/s (CpomOR6a; replicate 6) [Spike/s] | Spike/s (CpomOR6a; replicate 7) [Spike/s] | Spike/s (CpomOR6a; replicate 8) [Spike/s] | Spike/s (CpomOR6a; replicate 9) [Spike/s] | Spikes/s (CpomOR1; [1]) [Spikes/s] | Spikes/s (CpomOR1; [2]) [Spikes/s] | Spikes/s (CpomOR1; [3]) [Spikes/s] | Spikes/s (CpomOR1; [4]) [Spikes/s] | Spikes/s (CpomOR1; [5]) [Spikes/s] | further results
1 | C/C=C/C=C/CCCCCCCO [codlemone, (E,E)-8,10-dodecadien-1-ol] | 0 | 0 | -4 | 6 | 0 | 2 | 14 | 0 | 2 | 6 | 2 | 0 | -12 | 0 | Spikes/s (CpomOR1; replicate 1, 100 ng): -4 Spikes/s; Spikes/s (CpomOR1; replicate 2, 100 ng): 2 Spikes/s; Spikes/s (CpomOR1; replicate 3, 100 ng): 2 Spikes/s; Spikes/s (CpomOR1; replicate 4, 100 ng): -8 Spikes/s; Spikes/s (CpomOR1; replicate 5, 100 ng): -4 Spikes/s
2 | C/C=C/C=C/CCCCCCCOC(C)=O [codlemone acetate, (E,E)-8,10-dodecadien-1-yl acetate] | 46 | 50 | 44 | 54 | 80 | 46 | 82 | 62 | 58 | 2 | 4 | 4 | 2 | 4 | response compared with the solvent (CpomOR6a; 10 μg doses, Mann-Whitney U Test, p < 0.05): strongest response significantly different from the solvent; threshold for detection (CpomOR6a; dose response, dose per stimulus): 1.0 microgram
